The results in this text go back to patent publication US20240025906A1 (NEURON23, INC., priority 2022, published 2024).

The target in assay [1] is T1, TYK2 JH2 (Homo sapiens, UniProt P29597).
T1 construct: purchased DiscoverX (KINOMEscan KdELECT service); host or cells: E. coli BL21-derived (T7 phage display) or HEK-293
In words: TYK2 JH2 binding assay (KINOMEscan KdELECT competitive binding). The settings on record: TYK2 JH2 domain, KINOMEscan KdELECT (Assay A); read-out: Biochemical TYK2_DiscoverX_JH2_BND_Kd. The gist of the method:
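The assay measures displacement of DNA- or phage-tagged TYK2 pseudokinase domain from an affinity resin; compound binding lowers the amount captured, read by qPCR. Incubation lasts 1 h at room temperature.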

Assay [2] relates to JAK1/TYK2 pSTAT5 (Tyr694/699) in THP-1 cell line. Nature of the assay: IFNa-stimulated JAK1/TYK2 pSTAT5 (Tyr694/699) inhibition cellular assay, AlphaLISA. It counts as cell-based. The settings on record: Homo sapiens; THP-1 cells, IFNa-stimulated, AlphaLISA (Assay B); read-out: Cellular_THP1_IFNa-pSTATS_TYK2. The gist of the method: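 An eight-point 6-fold titration of compound (0.04–10000 nM final) is given to THP-1 cells for 1 h before 30 min of IFNa exposure. Phospho-STAT5 is read by AlphaLISA at 615 nm. IC50 values are derived by logistic regression with bottom set to 0 and Hill slope set to −1.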
For orientation: Alpha assays give light when donor and acceptor beads are brought close together.

T1 sequence (P29597 589-875 limits assumed): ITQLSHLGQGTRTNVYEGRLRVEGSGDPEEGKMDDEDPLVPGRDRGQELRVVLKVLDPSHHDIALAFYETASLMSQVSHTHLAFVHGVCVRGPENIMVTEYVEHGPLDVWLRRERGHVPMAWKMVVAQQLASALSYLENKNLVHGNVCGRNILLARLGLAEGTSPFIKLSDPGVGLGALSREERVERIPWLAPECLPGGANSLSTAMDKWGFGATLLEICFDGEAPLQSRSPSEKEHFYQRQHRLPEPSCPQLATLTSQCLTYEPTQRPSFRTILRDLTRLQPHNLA

Take `CNc1ncc(C#Cc2ccc3nc(C(F)F)n(C)c3c2)c2cc(NC(=O)C3CC3)ncc12` [Example 739, N-(5-((2-(difluoromethyl)-1-methyl-1H-benzo[d]imidazol-6-yl)ethynyl)-8-(methylamino)-2,7-naphthyridin-3-yl)cyclopropanecarboxamide]: the Kd in assay [1] was at most 100 nM. In assay [2], the IC50 is at most 500 nM.
For the compound `CNc1ncc(C#Cc2ccc3nc(C4CC4)n(C)c3c2)c2cc(NC(=O)C3CC3)ncc12` [Example 740, N-(5-((2-cyclopropyl-1-methyl-1H-benzo[d]imidazol-6-yl)ethynyl)-8-(methylamino)-2,7-naphthyridin-3-yl)cyclopropanecarboxamide], the Kd in assay [1] was at most 100 nM. For the same compound, in assay [2], the IC50 was at most 500 nM.
In the case of `CNc1ncc(C#Cc2ccc(OC[C@H]3COCCO3)cc2)c2cc(NC(=O)C3CC3)ncc12` [Example 741, (R)—N-(5-((4-((1,4-dioxan-2-yl)methoxy)phenyl)ethynyl)-8-(methylamino)-2,7-naphthyridin-3-yl)cyclopropanecarboxamide], the Kd in assay [1] was at most 100 nM. Besides, the IC50 in assay [2] was at most 500 nM.
With `CNc1ncc(C#Cc2ccc(OC)cn2)c2cc(NC(=O)[C@H]3C[C@H]3C)ncc12` [Example 742, (1S,2R)—N-(5-((5-methoxypyridin-2-yl)ethynyl)-8-(methylamino)-2,7-naphthyridin-3-yl)-2-methylcyclopropane-1-carboxamide], in assay [1], the Kd is at most 100 nM. Also, the IC50 in assay [2] was at most 500 nM.
Turning to `CNc1ncc(C#Cc2ccc(OC)cn2)c2cc(NC(=O)C3(F)CC3)ncc12` [Example 743, 1-fluoro-N-(5-((5-methoxypyridin-2-yl)ethynyl)-8-(methylamino)-2,7-naphthyridin-3-yl)cyclopropane-1-carboxamide], the Kd in assay [1] is at most 100 nM. In assay [2], the IC50 was at most 500 nM.
Turning to `CNc1ncc(C#Cc2ccc(OC)cn2)c2cc(NC(=O)C3CC3C(F)F)ncc12` [Example 744, (1R,18)-2-(difluoromethyl)-N-(5-((5-methoxypyridin-2-yl)ethynyl)-8-(methylamino)-2,7-naphthyridin-3-yl)cyclopropane-1-carboxamide], the Kd in assay [1] is at most 100 nM. For the same compound, in assay [2], the IC50 is at most 500 nM.
On to `CNc1ncc(C#Cc2ccc3c(C)noc3c2)c2cc(NC(=O)C3CC3)ncc12` [Example 748, N-(8-(methylamino)-5-((3-methylbenzo[d]isoxazol-6-yl)ethynyl)-2,7-naphthyridin-3-yl)cyclopropanecarboxamide], for which the Kd in assay [1] is at most 100 nM. For the same compound, the IC50 in assay [2] is at most 500 nM.
As to `CNc1ncc(C#Cc2ccc(C(C)=O)c(O)c2)c2cc(NC(=O)C3CC3)ncc12` [Example 749, N-(5-((4-acetyl-3-hydroxyphenyl)ethynyl)-8-(methylamino)-2,7-naphthyridin-3-yl)cyclopropanecarboxamide], the Kd in assay [1] is at most 100 nM. The IC50 in assay [2] is at most 500 nM.
As to `CCNc1ncc(C#Cc2ccc3nc4n(c3c2)CCOC4)c2cc(NC(=O)C3CC3)ncc12` [Example 750, N-(5-((3,4-dihydro-1H-benzo[4,5]imidazo[2,1-c][1,4]oxazin-7-yl)ethynyl)-8-(ethylamino)-2,7-naphthyridin-3-yl)cyclopropanecarboxamide], the Kd in assay [1] was at most 100 nM. The IC50 in assay [2] is at most 500 nM.
In the same order, the values of `CNc1ncc(C#Cc2ccc3nnn(C)c3c2)c2cc(Nc3ccccn3)ncc12` [Example 751, N^1-methyl-4-((1-methyl-1H-benzo[d][1,2,3]triazol-6-yl)ethynyl)-N^6-(pyridin-2-yl)-2,7-naphthyridine-1,6-diamine] are at most 100 nM and at most 500 nM.
Regarding `CNc1ncc(C#Cc2ccc(OC)cc2)c2cc(NC(=O)[C@@H]3C[C@@H]3F)ncc12` [Example 752, (1S,2S)-2-fluoro-N-(5-((4-methoxyphenyl)ethynyl)-8-(methylamino)-2,7-naphthyridin-3-yl)cyclopropane-1-carboxamide], the Kd in assay [1] is at most 100 nM. The IC50 in assay [2] is at most 500 nM.
As for `CNc1ncc(C#Cc2ccc(OC)cc2)c2cc(NC(=O)[C@H]3C[C@H]3C)ncc12` [Example 753, (1S,2R)—N-(5-((4-methoxyphenyl)ethynyl)-8-(methylamino)-2,7-naphthyridin-3-yl)-2-methylcyclopropane-1-carboxamide], the Kd in assay [1] was at most 100 nM. In addition, in assay [2], the IC50 was at most 500 nM.
The matching figures for `CNc1ncc(C#Cc2ccc3nc4n(c3c2)CCOC4)c2cc(NC(=O)C3(F)CC3)ncc12` [Example 758, N-(5-((3,4-dihydro-1H-benzo[4,5]imidazo[2,1-c][1,4]oxazin-7-yl)ethynyl)-8-(methylamino)-2,7-naphthyridin-3-yl)-1-fluorocyclopropane-1-carboxamide]: at most 100 nM and at most 500 nM.
Turning to `CNc1ncc(C#Cc2ccc3nnn(C)c3c2)c2cc(NC(=O)C3(F)CC3)ncc12` [Example 759, 1-fluoro-N-(5-((1-methyl-1H-benzo[d][1,2,3]triazol-6-yl)ethynyl)-8-(methylamino)-2,7-naphthyridin-3-yl)cyclopropane-1-carboxamide], in assay [1], the Kd was at most 100 nM. Further, the IC50 in assay [2] is over 500 nM.
With `CNc1ncc(C#Cc2ccc(OC3CN(C(C)=O)C3)cc2)c2cc(NC(=O)C3(F)CC3)ncc12` [Example 760, N-(5-((4-((1-acetylazetidin-3-yl)oxy)phenyl)ethynyl)-8-(methylamino)-2,7-naphthyridin-3-yl)-1-fluorocyclopropane-1-carboxamide], in assay [1], the Kd is at most 100 nM. In addition, the IC50 in assay [2] is at most 500 nM.
For the compound `CCn1c(C)nc2ccc(C#Cc3cnc(NC)c4cnc(NC(=O)C5CC5)cc34)cc21` [Example 761, N-(5-((1-ethyl-2-methyl-1H-benzo[d]imidazol-6-yl)ethynyl)-8-(methylamino)-2,7-naphthyridin-3-yl)cyclopropanecarboxamide], the Kd in assay [1] is at most 100 nM. The IC50 in assay [2] is at most 500 nM.
Turning to `CCn1c(C)nc2cc(C#Cc3cnc(NC)c4cnc(NC(=O)C5CC5)cc34)ccc21` [Example 762, N-(5-((1-ethyl-2-methyl-1H-benzo[d]imidazol-5-yl)ethynyl)-8-(methylamino)-2,7-naphthyridin-3-yl)cyclopropanecarboxamide], in assay [1], the Kd was at most 100 nM. In addition, the IC50 in assay [2] is at most 500 nM.
In the case of `CNc1ncc(C#Cc2ccc3nc(C)n(C(F)F)c3c2)c2cc(NC(=O)C3CC3)ncc12` [Example 763, N-(5-((1-(difluoromethyl)-2-methyl-1H-benzo[d]imidazol-6-yl)ethynyl)-8-(methylamino)-2,7-naphthyridin-3-yl)cyclopropanecarboxamide], in assay [1], the Kd was at most 100 nM. In addition, in assay [2], the IC50 is at most 500 nM.
In the same order, the values of `CNc1ncc(C#Cc2ccc3c(c2)nc(C)n3C(F)F)c2cc(NC(=O)C3CC3)ncc12` [Example 764, A-(5-((1-(difluoromethyl)-2-methyl-1H-benzo[d]imidazol-5-yl)ethynyl)-8-(methylamino)-2,7-naphthyridin-3-yl)cyclopropanecarboxamide] are at most 100 nM and at most 500 nM.
Take `CNc1ncc(-c2cc3ccc(OC)cn3n2)c2cc(NC(=O)C3CC3)ncc12` [Example 765, N-(5-(6-methoxypyrazolo[1,5-a]pyridin-2-yl)-8-(methylamino)-2,7-naphthyridin-3-yl)cyclopropanecarboxamide]: the Kd in assay [1] is at most 100 nM. Besides, the IC50 in assay [2] is at most 500 nM.
In the case of `CNc1ncc(C#Cc2cc3ccc(OC)cn3n2)c2cc(NC(=O)C3CC3)ncc12` [Example 766, N-(5-((6-methoxypyrazolo[1,5-a]pyridin-2-yl)ethynyl)-8-(methylamino)-2,7-naphthyridin-3-yl)cyclopropanecarboxamide], the Kd in assay [1] is at most 100 nM. In addition, the IC50 in assay [2] was at most 500 nM.
In the same order, the values of `CNc1ncc(C#Cc2cc3ccc(F)cn3n2)c2cc(NC(=O)C3CC3)ncc12` [Example 767, N-(5-((6-fluoropyrazolo[1,5-a]pyridin-2-yl)ethynyl)-8-(methylamino)-2,7-naphthyridin-3-yl)cyclopropanecarboxamide] are at most 100 nM and at most 500 nM.
Turning to `CNc1ncc(C#Cc2ccc(OC[C@@H]3COCCO3)cc2)c2cc(NC(=O)C3CC3)ncc12` [Example 768, (S)—N-(5-((4-((1,4-dioxan-2-yl)methoxy)phenyl)ethynyl)-8-(methylamino)-2,7-naphthyridin-3-yl)cyclopropanecarboxamide], the Kd in assay [1] was at most 100 nM. Also, the IC50 in assay [2] was at most 500 nM.
As for `CNc1ncc(C#Cc2ccc(P(C)(C)=O)cc2)c2cc(NC(=O)C3CC3)ncc12` [Example 769, N-(5-((4-(dimethylphosphoryl)phenyl)ethynyl)-8-(methylamino)-2,7-naphthyridin-3-yl)cyclopropanecarboxamide], the Kd in assay [1] was at most 100 nM. Also, the IC50 in assay [2] is at most 500 nM.
`CCC(=O)N1CC(Oc2ccc(C#Cc3cnc(NC)c4cnc(NC(=O)C5CC5)cc34)cc2)C1` [Example 770, N-(8-(methylamino)-5-((4-((1-propionylazetidin-3-yl)oxy)phenyl)ethynyl)-2,7-naphthyridin-3-yl) cyclopropanecarboxamide]: the Kd in assay [1] is at most 100 nM. Besides, the IC50 in assay [2] is at most 500 nM.
The matching figures for `CNc1ncc(C#Cc2ccc(OC3CN(C(=O)C4CC4)C3)cc2)c2cc(NC(=O)C3CC3)ncc12` [Example 771, N-(5-((4-((1-(cyclopropanecarbonyl)azetidin-3-yl)oxy)phenyl)ethynyl)-8-(methylamino)-2,7-naphthyridin-3-yl)cyclopropanecarboxamide]: at most 100 nM and at most 500 nM.
